# Data from article PMC11053168, “Agonist-selective activation of individual G-proteins by muscarinic receptors” (Scientific Reports, 2024).
# Tests used:
# M3 receptor = M3 receptor (Homo sapiens, UniProt P20309); set-up: expressed in transfected cells; method as in PMID 31910288; conditions: CHO expressing M3; cited from earlier work
# [1] = tested on: individual subtypes of muscarinic receptors (M1–M5); assay: [3H]NMS competition binding, summary over subtypes; set-up: species or system human; conditions: summary of Table 1 over subtypes
# Procedure: CHO cells stably transfected with the genes of individual subtypes of human muscarinic receptors (M1–M5, wild types) were purchased from Missouri S&T cDNA resource center (Rolla, MO, USA) (https://www.cdna.org/home.php?cat=177). Cells were cultured as described previously by Randakova et al.[33]. Cells were grown to confluence in 75 cm^2 flasks in Dulbecco’s modified Eagle’s medium DMEM (Thermo Fisher Scientific; LOT: 2556745) supplemented with 10% fetal bovine serum and geneticin in concentration 50 µg/ml at 37 °C in a humidified incubator containing 5% CO2. The medium was supplemented with 5 mM butyrate for the last 24 h of culture to increase receptor expression. Cells were washed with (phosphate-buffered saline (PBS), mechanically harvested by scraper and centrifugated 1000 × g for 5 min. Cell pellets were kept at − 80 °C.
# Membranes were prepared as described previously by Randakova et al.[33]. […]
# Non-specific binding was determined in the presence of 10 μM unlabelled atropine. […] The filtration plates were counted in the Microbeta scintillation counter (PerkinElmer). […] The inhibition constant KI was calculated according to Eq. (2). […]
# Sequence of M3 receptor (P20309 whole entry): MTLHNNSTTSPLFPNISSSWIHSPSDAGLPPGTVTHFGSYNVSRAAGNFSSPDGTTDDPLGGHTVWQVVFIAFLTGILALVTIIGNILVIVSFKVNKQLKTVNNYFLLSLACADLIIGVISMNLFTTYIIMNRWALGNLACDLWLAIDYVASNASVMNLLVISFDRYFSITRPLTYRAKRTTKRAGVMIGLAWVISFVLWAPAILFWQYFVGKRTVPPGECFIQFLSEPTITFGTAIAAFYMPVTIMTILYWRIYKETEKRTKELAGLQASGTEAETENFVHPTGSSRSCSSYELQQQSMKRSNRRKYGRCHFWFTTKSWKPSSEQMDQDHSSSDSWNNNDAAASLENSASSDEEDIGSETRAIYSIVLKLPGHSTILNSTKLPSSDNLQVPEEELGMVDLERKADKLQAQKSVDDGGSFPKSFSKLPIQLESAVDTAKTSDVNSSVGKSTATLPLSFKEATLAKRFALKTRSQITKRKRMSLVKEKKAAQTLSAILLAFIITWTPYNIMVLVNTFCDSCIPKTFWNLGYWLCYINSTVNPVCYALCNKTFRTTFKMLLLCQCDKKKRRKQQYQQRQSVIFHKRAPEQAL
SMILES,IP production (M3 receptor),"Affinity, times higher than JR-6 [1]"
"C[N+]1(Cc2cccs2)CC=CCC1 (centres unmarked) [JR-6, 1-methyl-1-[(thiophen-2-yl)methyl]-1,2,3,6-tetra hydropyridin-1-ium]",marginal response,
"C[N+]1(Cc2ccc(Cl)s2)CC=CCC1 (centres unmarked) [PN-152, 1-[(5-chlorothiophen-2-yl)methyl]-1-methyl-1,2,3,6-tetrahydropyridin-1-ium]",,three to ten
